Here are results for 2 compounds from ChEMBL document CHEMBL1121823, “A novel connector linkage applicable in prodrug design” (J Med Chem, 1981).

Each structure is given as a SMILES string.

Common to all, as to assay type: ADME
Series [1] in a line: Half-life in aqueous buffer (0.05 M bistris, pH 6.9) in the presence of trypsin (2.5 ug/ml) was determined at 25 degree C.
Series [2] is described as follows: Half-life in aqueous buffer (0.05 M bistris, pH 6.9) in the absence of trypsin was determined at 25 degree C. As to conditions: aqueous buffer without trypsin.
A short description of series [3]: Half-life was determined. As to conditions: human.

What is called half-life is the time needed for the level to fall by half in the phase considered. Consider `CC(C)(C)OC(=O)NC(CCCCN)C(=O)Nc1ccc(COC(=O)Nc2ccc([N+](=O)[O-])cc2)cc1` (stereo not drawn), for which the half-life in series [1] is 11 min; in series [2], 40 h.
For `NC(=O)OCc1ccc(N)cc1`, the half-life in series [3] came out at 1.5 min.
